Results from ChEMBL document CHEMBL1132382 (J Med Chem, 1999).
≈ marks a conversion by molar mass, not a printed value.

Assays:
Oryctolagus cuniculus [1] = species on record: Oryctolagus cuniculus; test: The compound was evaluated for fall in intraocular pressure (IOP) of Normotensive rabbits after treatment with one drop (50 microL) of a 2% solution at 30 min (pH 7.0); assay type: functional, Eye
Oryctolagus cuniculus [2] = species on record: Oryctolagus cuniculus; test: The compound was evaluated for fall in intraocular pressure (IOP) of Normotensive rabbits after treatment with one drop (50 microL) of a 2% solution at 0 min (pH 7.0); assay type: functional, Eye
Oryctolagus cuniculus [3] = species on record: Oryctolagus cuniculus; test: The compound was evaluated for fall in intraocular pressure (IOP) of Normotensive rabbits after treatment with one drop (50 microL) of a 2% solution at 90 min (pH 7.0); assay type: functional, Eye
Oryctolagus cuniculus [4] = species on record: Oryctolagus cuniculus; test: The compound was evaluated for fall in intraocular pressure (IOP) of Normotensive rabbits after treatment with one drop (50 microL) of a 2% solution at 60 min (pH 7.0); assay type: functional, Eye
Carbonic anhydrase 1 = Carbonic anhydrase 1 (Homo sapiens, UniProt P00915)
Description: Inhibitory activity against human recombinant carbonic anhydrase I (CA1)

Carbonic anhydrase 4 = molecular target: T1, Carbonic anhydrase 4 (Bos taurus, UniProt Q95323)
T1 sequence (Q95323 whole entry): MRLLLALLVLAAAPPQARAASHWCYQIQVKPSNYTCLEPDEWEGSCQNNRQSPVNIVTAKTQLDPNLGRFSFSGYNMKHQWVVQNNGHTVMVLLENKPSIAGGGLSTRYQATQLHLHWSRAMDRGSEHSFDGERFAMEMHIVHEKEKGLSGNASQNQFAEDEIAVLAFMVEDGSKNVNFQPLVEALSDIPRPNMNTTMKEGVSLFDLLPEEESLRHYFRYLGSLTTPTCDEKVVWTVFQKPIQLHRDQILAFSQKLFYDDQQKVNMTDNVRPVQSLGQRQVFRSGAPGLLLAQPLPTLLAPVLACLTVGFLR
Description: Inhibitory activity against bovine carbonic anhydrase IV (CA4), isolated from bovine lung microsomes

Oryctolagus cuniculus [5] = species on record: Oryctolagus cuniculus; test: The compound was evaluated for fall in intraocular pressure (IOP) of Glaucomatous rabbits after treatment with one drop (50 microL) of a 2% solution at 60 min (pH 6.5); assay type: functional, Eye
Oryctolagus cuniculus [6] = species on record: Oryctolagus cuniculus; test: The compound was evaluated for fall in intraocular pressure (IOP) of Glaucomatous rabbits after treatment with one drop (50 microL) of a 2% solution at 0 min (pH 6.5); assay type: functional, Eye
Oryctolagus cuniculus [7] = species on record: Oryctolagus cuniculus; test: The compound was evaluated for fall in intraocular pressure (IOP) of Normotensive rabbits after treatment with one drop (50 microL) of a 2% solution at 60 min (pH 6.5); assay type: functional, Eye
Oryctolagus cuniculus [8] = species on record: Oryctolagus cuniculus; test: The compound was evaluated for fall in intraocular pressure (IOP) of Normotensive rabbits after treatment with one drop (50 microL) of a 2% solution at 90 min (pH 6.5); assay type: functional, Eye
Oryctolagus cuniculus [9] = species on record: Oryctolagus cuniculus; test: The compound was evaluated for fall in intraocular pressure (IOP) of Normotensive rabbits after treatment with one drop (50 microL) of a 2% solution at 30 min (pH 6.5); assay type: functional, Eye
Oryctolagus cuniculus [10] = species on record: Oryctolagus cuniculus; test: The compound was evaluated for fall in intraocular pressure (IOP) of Normotensive rabbits after treatment with one drop (50 microL) of a 2% solution at 0 min (pH 6.5); assay type: functional, Eye
Oryctolagus cuniculus [11] = species on record: Oryctolagus cuniculus; test: The compound was evaluated for fall in intraocular pressure (IOP) of Glaucomatous rabbits after treatment with one drop (50 microL) of a 2% solution at 30 min (pH 6.5); assay type: functional, Eye
Oryctolagus cuniculus [12] = species on record: Oryctolagus cuniculus; test: The compound was evaluated for fall in intraocular pressure (IOP) of Glaucomatous rabbits after treatment with one drop (50 microL) of a 2% solution at 90 min (pH 6.5); assay type: functional, Eye
physchem = conditions: buffer, pH 7.4
Oryctolagus cuniculus [13] = species on record: Oryctolagus cuniculus; test: The compound was evaluated for fall in intraocular pressure (IOP) of Normotensive rabbits after treatment with one drop (50 microL) of a 2% solution at 30 min (pH 7.5); assay type: functional, Eye
Oryctolagus cuniculus [14] = species on record: Oryctolagus cuniculus; test: The compound was evaluated for fall in intraocular pressure (IOP) of Normotensive rabbits after treatment with one drop (50 microL) of a 2% solution at 60 min (pH 7.5); assay type: functional, Eye
Oryctolagus cuniculus [15] = species on record: Oryctolagus cuniculus; test: The compound was evaluated for fall in intraocular pressure (IOP) of Glaucomatous rabbits after treatment with one drop (50 microL) of a 2% solution at 60 min (pH 7.5); assay type: functional, Eye
[16] = octanol/water
Description: Partition coefficient (logD) (chloroform/buffer)

Oryctolagus cuniculus [17] = species on record: Oryctolagus cuniculus; test: The compound was evaluated for fall in intraocular pressure (IOP) of Normotensive rabbits after treatment with one drop (50 microL) of a 2% solution at 0 min (pH 7.5); assay type: functional, Eye
Oryctolagus cuniculus [18] = species on record: Oryctolagus cuniculus; test: The compound was evaluated for fall in intraocular pressure (IOP) of Glaucomatous rabbits after treatment with one drop (50 microL) of a 2% solution at 90 min (pH 7.5); assay type: functional, Eye
Oryctolagus cuniculus [19] = species on record: Oryctolagus cuniculus; test: The compound was evaluated for fall in intraocular pressure (IOP) of Glaucomatous rabbits after treatment with one drop (50 microL) of a 2% solution at 30 min (pH 7.5); assay type: functional, Eye
Oryctolagus cuniculus [20] = species on record: Oryctolagus cuniculus; test: The compound was evaluated for fall in intraocular pressure (IOP) of Normotensive rabbits after treatment with one drop (50 microL) of a 2% solution at 90 min (pH 7.5); assay type: functional, Eye
[21] = not given; remark: listed apart in the source
Oryctolagus cuniculus [22] = species on record: Oryctolagus cuniculus; test: The compound was evaluated for fall in intraocular pressure (IOP) of Glaucomatous rabbits after treatment with one drop (50 microL) of a 2% solution at 0 min (pH 7.5); assay type: functional, Eye
Oryctolagus cuniculus [23] = species on record: Oryctolagus cuniculus; test: The compound was evaluated for fall in intraocular pressure (IOP) of glaucomatous rabbits after treatment with one drop (50 microL) of a 2% solution at 30 min (pH 7.5); assay type: functional, Eye
Oryctolagus cuniculus [24] = species on record: Oryctolagus cuniculus; test: The compound was evaluated for fall in intraocular pressure (IOP) of glaucomatous rabbits after treatment with one drop (50 microL) of a 2% solution at 90 min (pH 7.5); assay type: functional, Eye
Oryctolagus cuniculus [25] = species on record: Oryctolagus cuniculus; test: The compound was evaluated for fall in intraocular pressure (IOP) of glaucomatous rabbits after treatment with one drop (50 microL) of a 2% solution at 60 min (pH 7.5); assay type: functional, Eye
Oryctolagus cuniculus [26] = species on record: Oryctolagus cuniculus; test: The compound was evaluated for fall in intraocular pressure (IOP) of Normotensive rabbits after treatment with one drop (50 microL) of a 2% solution at 90 min (pH 5.5); assay type: functional, Eye
Oryctolagus cuniculus [27] = species on record: Oryctolagus cuniculus; test: The compound was evaluated for fall in intraocular pressure (IOP) of Glaucomatous rabbits after treatment with one drop (50 microL) of a 2% solution at 0 min (pH 6.0); assay type: functional, Eye
Oryctolagus cuniculus [28] = species on record: Oryctolagus cuniculus; test: The compound was evaluated for fall in intraocular pressure (IOP) of Normotensive rabbits after treatment with one drop (50 microL) of a 2% solution at 60 min (pH 5.5); assay type: functional, Eye
Oryctolagus cuniculus [29] = species on record: Oryctolagus cuniculus; test: The compound was evaluated for fall in intraocular pressure (IOP) of Normotensive rabbits after treatment with one drop (50 microL) of a 2% solution at 0 min (pH 5.5); assay type: functional, Eye
Oryctolagus cuniculus [30] = species on record: Oryctolagus cuniculus; test: The compound was evaluated for fall in intraocular pressure (IOP) of Glaucomatous rabbits after treatment with one drop (50 microL) of a 2% solution at 90 min (pH 6.0); assay type: functional, Eye
Oryctolagus cuniculus [31] = species on record: Oryctolagus cuniculus; test: The compound was evaluated for fall in intraocular pressure (IOP) of Normotensive rabbits after treatment with one drop (50 microL) of a 2% solution at 30 min (pH 5.5); assay type: functional, Eye
Oryctolagus cuniculus [32] = species on record: Oryctolagus cuniculus; test: The compound was evaluated for fall in intraocular pressure (IOP) of Glaucomatous rabbits after treatment with one drop (50 microL) of a 2% solution at 60 min (pH 6.0); assay type: functional, Eye
Oryctolagus cuniculus [33] = species on record: Oryctolagus cuniculus; test: The compound was evaluated for fall in intraocular pressure (IOP) of Glaucomatous rabbits after treatment with one drop (50 microL) of a 2% solution at 30 min (pH 6.0); assay type: functional, Eye

Carbonic anhydrase 1, sequence (P00915 whole entry): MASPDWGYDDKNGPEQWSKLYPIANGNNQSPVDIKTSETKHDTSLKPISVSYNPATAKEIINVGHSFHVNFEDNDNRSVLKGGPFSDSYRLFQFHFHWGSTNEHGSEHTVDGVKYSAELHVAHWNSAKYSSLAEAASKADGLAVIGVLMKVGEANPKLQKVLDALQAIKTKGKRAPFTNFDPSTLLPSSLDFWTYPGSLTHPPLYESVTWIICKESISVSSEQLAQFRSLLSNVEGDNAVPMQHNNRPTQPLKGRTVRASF

Row | SMILES | Ki (Carbonic anhydrase 1) [nM] | Ki (Carbonic anhydrase 4) [nM] | solubility (physchem) [mM] | Change in IOP (Oryctolagus cuniculus [13]) [mmHg] | Change in IOP (Oryctolagus cuniculus [14]) [mmHg] | logD [16] | kin [h⁻¹] | Change in IOP (Oryctolagus cuniculus [17]) [mmHg] | kin [21] [h⁻¹] | also measured
1 | CN(CC(=O)/N=c1/sc(S(N)(=O)=O)nn1C)C(=N)N | 190 | 41 |  |  |  |  |  |  |  | Change in IOP (Oryctolagus cuniculus [1]): 5.5 mmHg; Change in IOP (Oryctolagus cuniculus [2]): 0 mmHg; Change in IOP (Oryctolagus cuniculus [3]): 9 mmHg; Change in IOP (Oryctolagus cuniculus [4]): 9.2 mmHg
2 | CN(CC(=O)Nc1nnc(S(N)(=O)=O)s1)C(=N)N | 170 | 35 |  |  |  |  |  |  |  | Change in IOP (Oryctolagus cuniculus [5]): 13.4 mmHg; Change in IOP (Oryctolagus cuniculus [6]): 0 mmHg; Change in IOP (Oryctolagus cuniculus [7]): 10.1 mmHg; Change in IOP (Oryctolagus cuniculus [8]): 9.1 mmHg; Change in IOP (Oryctolagus cuniculus [9]): 6.5 mmHg; Change in IOP (Oryctolagus cuniculus [10]): 0 mmHg; Change in IOP (Oryctolagus cuniculus [11]): 8.5 mmHg; Change in IOP (Oryctolagus cuniculus [12]): 14.5 mmHg
3 | NCC(=O)NCC(=O)Nc1ccc(S(=O)(=O)Nc2nnc(S(N)(=O)=O)s2)cc1 | 13 | 6 | 51 (≈ 22.9 mg/mL) | 5.9 | 8.8 | 0.754 | 5 | 0 | 2 | Change in IOP (Oryctolagus cuniculus [15]): 11.8 mmHg; Change in IOP (Oryctolagus cuniculus [18]): 13.1 mmHg; Change in IOP (Oryctolagus cuniculus [19]): 7 mmHg; Change in IOP (Oryctolagus cuniculus [20]): 9.1 mmHg; Change in IOP (Oryctolagus cuniculus [22]): 0 mmHg
4 | CN(CC(=O)NCCC(=O)Nc1nnc(S(N)(=O)=O)s1)C(=N)N | 21 | 8 | 75 (≈ 27.3 mg/mL) | 10.7 | 9.8 | 1.944 | 8.5 | 6.6 | 4.7 | Change in IOP (Oryctolagus cuniculus [23]): 8.6 mmHg; Change in IOP (Oryctolagus cuniculus [24]): 14.3 mmHg; Change in IOP (Oryctolagus cuniculus [25]): 14.2 mmHg
5 | NCC(=O)Nc1ccc(S(=O)(=O)Nc2nnc(S(N)(=O)=O)s2)cc1 | 14 | 9 | 65 (≈ 25.5 mg/mL) |  |  | 0.043 | 5.4 |  | 3.1 | Change in IOP (Oryctolagus cuniculus [26]): 9 mmHg; Change in IOP (Oryctolagus cuniculus [27]): 0 mmHg; Change in IOP (Oryctolagus cuniculus [28]): 9.5 mmHg; Change in IOP (Oryctolagus cuniculus [29]): 0 mmHg; Change in IOP (Oryctolagus cuniculus [30]): 14 mmHg; Change in IOP (Oryctolagus cuniculus [31]): 5.9 mmHg; Change in IOP (Oryctolagus cuniculus [32]): 12.5 mmHg; Change in IOP (Oryctolagus cuniculus [33]): 7.9 mmHg
